This is an account of results in PubChem BioAssay (NCI).

Where “and” joins values, the source holds several entries; their conditions need not be identical. Identical values can stand only once.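 1) Cells in 96-well plates. 2) Compound, 48 h, 5 concentrations. 3) Linear interpolation between surrounding doses. 4) Unreached endpoint = highest concentration. GI50 = concentration required for 50% inhibition of growth. TGI is the concentration that stops growth completely.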 A value given as a limit tells only on which side of the number the result lay.

Some test systems named below: 786-0 renal; NCI-H23 lung; NCI-H460 lung; SNB-19 CNS; ACHN renal; HCT-15 colon; EKVX NSCLC; SN12C renal; HCT-116 colon; HOP-62 NSCLC.
Holding throughout (assay): growth of human tumour cells (NCI), 48 h

`S=c1o[nH]c(-c2ccccc2)c1C=Nc1ccccc1`: the TGI in the test with 786-0 renal, in the test with NCI-H23 lung, in the test on NCI-H460 lung, in the test with SNB-19 CNS, with ACHN renal and in the test on HCT-15 colon was > 100 µM in each case. Further, the TGI in the test with EKVX NSCLC and in the test with SN12C renal was > 100 µM in each case.

As for `Cc1cccc(C)c1NC(=O)CCc1nnc2s/c(=C\c3ccc(N(C)C)cc3)c(=O)n12`, the TGI with HCT-116 colon, with 786-0 renal, with NCI-H23 lung, in the test on NCI-H460 lung, in the test on HOP-62 NSCLC and in the test with SNB-19 CNS was > 100 µM each time. Further, the TGI in the test on ACHN renal, with HCT-15 colon and in the test with SN12C renal was > 100 µM in each case.

As to `NCCCOc1cc2ccccc2cc1C(=O)Nc1ccc(Cl)cc1OC(=O)c1cc2ccccc2cc1OCCCN`, the GI50 in the test with HCT-116 colon is 0.175 µM; with 786-0 renal it was 0.172 µM; with NCI-H23 lung, 0.387 µM; in the test with NCI-H460 lung, 0.195 µM; with HOP-62 NSCLC it was 0.208 µM; in the test on SNB-19 CNS, 0.766 µM. For the same compound, the GI50 was 0.373 µM in the test with ACHN renal, 0.468 µM in the test on HCT-15 colon and 0.742 µM in the test on SN12C renal. Also, the TGI in the test with HCT-116 colon worked out at 0.313 µM; in the test with 786-0 renal, 0.327 µM; in the test with NCI-H23 lung it was 1.2 µM; with NCI-H460 lung it was 0.345 µM; in the test with HOP-62 NSCLC, 0.515 µM; in the test on SNB-19 CNS, 2.19 µM. Further, the values for the TGI with ACHN renal, with HCT-15 colon and in the test with SN12C renal were 0.972 µM, 1.15 µM and 2.23 µM, respectively.

Turning to `Nc1ccc(-c2cc(C(=O)Nc3nccs3)[nH]c(=S)n2)cc1`, the TGI in the test on HCT-116 colon, with 786-0 renal, with NCI-H23 lung, in the test on SNB-19 CNS, in the test on ACHN renal and in the test on HCT-15 colon was > 100 µM in each case. Also, the TGI with EKVX NSCLC and in the test with SN12C renal was > 100 µM each time.

With `Cn1c(=O)nc2n(-c3ccc(Cl)cc3)c(-c3ccccc3)c(-c3ccccc3)nc-2c1=O`, the TGI in the test on 786-0 renal is > 100 µM; in the test on NCI-H23 lung, > 100 µM; in the test with NCI-H460 lung it was 62.5 µM; in the test with HOP-62 NSCLC, 66.7 µM; in the test with SNB-19 CNS it was > 100 µM; in the test on ACHN renal it was 49.8 µM. Moreover, the TGI in the test with HCT-15 colon, in the test with EKVX NSCLC and in the test with SN12C renal was > 100 µM each time.

As for `COc1ccc(/C(C)=N/NC(=O)CSc2nc3ccccc3c(=O)n2CCc2ccc(S(N)(=O)=O)cc2)cc1`, the GI50 in the test with 786-0 renal was 1.79 µM; with NCI-H23 lung, 2.3 µM; with NCI-H460 lung, 2.03 µM; in the test on SNB-19 CNS, 2.27 µM; with ACHN renal, 1.73 µM; in the test with HCT-15 colon it was 4.7 µM. Further, the GI50 in the test with EKVX NSCLC is 2.85 µM; in the test on SN12C renal, 1.89 µM. For the same compound, the TGI was found to be 3.44 µM with 786-0 renal; 5.81 µM in the test with NCI-H23 lung; 3.81 µM in the test on NCI-H460 lung; 4.78 µM in the test on SNB-19 CNS; 3.27 µM in the test on ACHN renal; 63.7 µM in the test with HCT-15 colon. Further, the TGI in the test on EKVX NSCLC worked out at 12.8 µM; with SN12C renal, 3.75 µM.

For the compound `Cc1cccc(C)c1NC(=O)CCC/C(CC(=O)c1ccc(F)cc1)=N\NC(=O)C(=O)NN`, the TGI in the test with HCT-116 colon, in the test on 786-0 renal, with NCI-H23 lung, in the test on NCI-H460 lung, in the test with SNB-19 CNS and in the test on ACHN renal was > 100 µM each time. In addition, the TGI with HCT-15 colon, in the test on EKVX NSCLC and in the test with SN12C renal was > 100 µM each time.

With `O=C1C(=C2CCCC2)CCC1CN1CCCCC1` (centres undefined), the TGI in the test with HCT-116 colon was 38.1 µM; in the test with 786-0 renal, 26.4 µM; with NCI-H23 lung, 36.4 µM; in the test on SNB-19 CNS, > 100 µM; with HCT-15 colon, 31.2 µM; in the test on EKVX NSCLC, 35.4 µM. This compound also yielded a TGI in the test on SN12C renal of 30.6 µM.

In the case of `COc1ccc(C(C)c2cc(OC)c(OC)c(OC)c2)cc1` (centres undefined), the GI50 in the test with 786-0 renal was 0.213 µM; in the test on NCI-H23 lung, 0.292 µM; in the test with NCI-H460 lung, 0.177 µM; with HOP-62 NSCLC it was 0.259 µM; in the test with SNB-19 CNS, 0.221 µM; in the test with ACHN renal it was 0.341 µM. Further, the GI50 in the test with HCT-15 colon was 0.088 µM; in the test with EKVX NSCLC it was 0.373 µM; in the test on SN12C renal, 0.546 µM. Also, the TGI in the test with 786-0 renal, with NCI-H23 lung, with NCI-H460 lung, in the test with HOP-62 NSCLC, with SNB-19 CNS and with ACHN renal was > 50 µM each time. The TGI with HCT-15 colon, in the test with EKVX NSCLC and in the test with SN12C renal was > 50 µM in each case.

As for `Cc1ccc(C(=O)c2sc3nc4c(cc3c2N)CCCC4)c(C)c1`, the GI50 in the test on HCT-116 colon was 0.26 µM; with 786-0 renal, 0.617 µM; with NCI-H23 lung, 0.776 µM; in the test with NCI-H460 lung it was 0.348 µM; in the test on HOP-62 NSCLC it was 0.465 µM; in the test on SNB-19 CNS, 4.68 µM. Also, the results for the GI50 with ACHN renal, with HCT-15 colon and with SN12C renal were 0.872 µM, 0.159 µM and 0.841 µM, respectively. Also, the TGI in the test on HCT-116 colon, with 786-0 renal, in the test on NCI-H23 lung, in the test with NCI-H460 lung, in the test on HOP-62 NSCLC and in the test with SNB-19 CNS was > 100 µM throughout. Besides, the TGI with ACHN renal, in the test with HCT-15 colon and in the test on SN12C renal was > 100 µM each time.

With `Nc1ncnc2c1ncn2C1OC(COS(N)(=O)=O)C(O)C1O` (centres undefined), the GI50 with HCT-116 colon is 0.00252 µM and 0.0248 µM; in the test with 786-0 renal, 0.00213 µM and 0.0204 µM; in the test with SNB-19 CNS, < 0.001 µM; with HCT-15 colon it was 0.00255 µM; in the test on SN12C renal, < 0.001 µM. For the same compound, the TGI was 0.0156 µM and 0.0656 µM in the test with HCT-116 colon; 0.00465 µM and 0.0433 µM with 786-0 renal; 0.00558 µM and 0.0546 µM in the test on NCI-H23 lung; 0.0071 µM with HCT-15 colon.
